The text below walks through data of patent US6713475B2, “Tricyclic benzodiazepines as vasopressin receptor antagonists” (Ortho-McNeil Pharmaceutical, Inc., priority 1999, dated 2004).

Counter-ions that a name gives are not always drawn.

The term melting point denotes the temperature, or range, at which the solid turns liquid. A word on the IC50: it is the midpoint of a concentration-inhibition curve.

One series concerns the target T1, human V-1 receptor (Homo sapiens, UniProt P37288).
T1 construct: expressed in transfected cells; host or cells: HEK-293
The series can be described thus: In vitro recombinant vasopressin receptor binding assay (V1 Bdg), displacement of 3H-arginine vasopressin. Particulars: for inhibition at 0.1 µM: read-out: V1 Bdg (% inh, 0.1 uM). A digest of the protocol:
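Membranes from HEK-293 cells bearing cloned human V-1 receptor, incubated 1 h at room temperature with 0.65-0.75 nM 3H-arginine-8-vasopressin in pH 7.5 Tris/MgCl2/BSA buffer with protease inhibitors. Filtration onto GF/C, scintillation count. Non-specific binding with 1.25 uM arginine-8-vasopressin.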

Series [1] has as its system vasopressin-induced hypertension in anesthetized rats. The series is described as follows: Reversal of vasopressin-induced hypertension in rats (intraduodenal dosing). It is filed as in vivo, rat. Particulars: I.D. dose 10 mg/kg, single dose into the duodenum, maximum percent reversal, monitored for 60 minutes. The procedure: Reversal of Vasopressin-Induced Hypertension in Rats
The anti-hypertensive activity of compounds was screened in an anesthetized model of vasopressin-induced hypertension. Male Long Evans, normotensive rats of between 350 and 450 g in body weight were anesthetized with pentobarbital (35 mg/kg, ip) and maintained throughout the procedure with an ip infusion of 10 mg/kg/hr. Arginine vasopressin was infused at 30 ng/kg/min, iv, to induce a stable hypertensive state (ca. 50 mmHg increase in mean arterial blood pressure). Compounds of interest were administered in an ascending dose fashion and the maximum decrease in mean arterial blood pressure was recorded. An ED50 was determined from the linear portion of the dose-response relationship for each animal.
This model was modified slightly to assess the bioavailability of compounds of interest. Rather than dosing the animals iv in an ascending dose fashion, a single dose per animal was administered directly into the duodenum. The anti-hypertensive effects were then monitored for 60 minutes and the maximum percent reversal was calculated.

The target in series [2] is T2, V2 (Homo sapiens, UniProt P30518). The series can be described thus: V2 cAMP. It counts as cell-based.
For series [3], the target named is T2, V2. The series is described as follows: In vitro recombinant vasopressin receptor binding assay (V2 Bdg), displacement of 3H-arginine vasopressin. Also on record: expressed in transfected cells; host or cells: HEK-293. Particulars: for IC50: membrane with cloned human V-2 receptor (HEK-293); for V2 Bdg % inh: 0.1 uM, printed in parentheses in place of IC50. The procedure, abridged:
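Displacement of ³H-vasopressin from membranes of HEK-293 cells bearing cloned human V-2 receptor, incubated with test compound one hour at room temperature. Bound label was collected on PEI-soaked GF/C filters, washed with cold saline/0.05% Tween 20, and counted by scintillation.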

T1 sequence (P37288 whole entry): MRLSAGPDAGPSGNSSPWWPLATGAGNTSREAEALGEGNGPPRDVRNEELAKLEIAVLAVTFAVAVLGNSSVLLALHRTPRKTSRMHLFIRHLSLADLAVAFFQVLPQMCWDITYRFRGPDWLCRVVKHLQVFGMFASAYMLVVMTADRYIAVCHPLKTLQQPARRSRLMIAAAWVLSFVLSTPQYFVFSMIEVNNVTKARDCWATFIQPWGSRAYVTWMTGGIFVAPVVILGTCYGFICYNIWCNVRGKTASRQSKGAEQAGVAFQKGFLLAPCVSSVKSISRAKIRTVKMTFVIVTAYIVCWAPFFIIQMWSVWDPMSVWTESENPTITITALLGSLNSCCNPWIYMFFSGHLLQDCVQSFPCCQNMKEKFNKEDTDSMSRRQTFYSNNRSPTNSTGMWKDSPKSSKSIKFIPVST

The molecule `Cc1ccc2c(c1)CN1CCSCC1CN2C(=O)c1ccc(NC(=O)c2ccccc2-c2ccccc2)cc1` (racemic) (as salt: HCl) [Compound 36, (RS)-2-Phenyl-N-[4-(8-methyl-1,3,4,12a-tetrahydro-6H-[1,4]thiazino[4,3-a][1,4]-benzodiazepin-11(12H)-yl-carbonyl)phenyl]benzamide] came in with a melting point of 191 to 196 °C. `O=C(Nc1ccc(C(=O)N2CC3CCCCN3Cc3ccccc32)cc1)c1ccccc1-c1ccccc1` (stereo not drawn) (as salt: HCl) [Compound 1, 10-[4-[[(2-Biphenyl)carbonyl]amino]benzoyl]-10,11-dihydro-5H-piperidino[2,1-c][1,4]benzodiazepine] displayed a melting point of 191 to 193 °C. Still for that read-out and setting: next, `O=C(Nc1ccc(C(=O)N2CC3CSCCN3Cc3cc(F)ccc32)cc1)c1ccccc1-c1ccccc1` (racemic) (as salt: HCl) [Compound 32, (RS)-2-Phenyl-N-[4-(8-fluoro-1,3,4,12a-tetrahydro-6H-[1,4]thiazino[4,3-a][1,4]-benzodiazepin-11(12H)-yl-carbonyl)phenyl]benzamide]: 177 to 180 °C. As to `O=C(Nc1ccc(C(=O)N2CC3CSCCN3Cc3ccccc32)cc1)c1ccccc1-c1ccccc1` (racemic) [Compound 3, (RS)-2-Phenyl-N-[4-(1,3,4,12a-tetrahydro-6H-[1,4]thiazino[4,3-a][1,4]-benzodiazepin-11(12H)-yl-carbonyl)phenyl]benzamide], the inhibition at 0.1 µM at human V-1 receptor came out at 42%. Further, the “BP Reduction (%)” value in series [1] was 100%. With `O=C(Nc1ccc(C(=O)N2CC3COCCN3Cc3ccccc32)c(O)c1)c1ccccc1-c1ccccc1` (racemic) (as salt: HCl) [Compound 23, (RS)-2-Phenyl-N-[3-hydroxy-4-(1,3,4,12a-tetrahydro-6H-[1,4]oxazino[4,3-a][1,4]-benzodiazepin-11(12H)-yl-carbonyl)phenyl]benzamide], the melting point was 185 to 188 °C (dec.). `O=C(Nc1ccc(C(=O)N2CC3CSCCN3Cc3cc(F)c(F)cc32)cc1)c1ccccc1-c1ccccc1` (racemic) (as salt: HCl) [Compound 35, (RS)-2-Phenyl-N-[4-(8,9-difluoro-1,3,4,12a-tetrahydro-6H-[1,4]thiazino[4,3-a][1,4]-benzodiazepin-11(12H)-yl-carbonyl)phenyl]benzamide]: the melting point fell in the range of 194 to 199 °C. `O=C(Nc1ccc(C(=O)N2CC3CCCCN3Cc3ccccc32)cc1)c1ccccc1-c1ccccc1` (stereo not drawn) [Compound 1, 10-[4-[[(2-Biphenyl)carbonyl]amino]benzoyl]-10,11-dihydro-5H-piperidino[2,1-c][1,4]benzodiazepine]: at human V-1 receptor, the inhibition at 0.1 µM worked out at 31%. Also, the IC50 is 210 nM on V2 [2] and 9 nM at V2 [3]. Further, the “BP Reduction (%)” value in series [1] came out at 67%. With `O=C(Nc1ccc(C(=O)N2CC3CC=CCN3Cc3ccccc32)cc1)c1ccccc1-c1ccccc1` (stereo not drawn) [Compound 2, 10-[4-[[(2-Biphenyl)carbonyl]amino]benzoyl]-10,11-dihydro-5H-(tetrahydropyridino)[2,1-c][1,4]benzodiazepine], on human V-1 receptor, the inhibition at 0.1 µM came to 29%. Also, the IC50 turned out to be 460 nM on V2 [2] and 14 nM on V2 [3]. Take `O=C(Nc1ccc(C(=O)N2C[C@H]3COCCN3Cc3ccccc32)c(Cl)c1)c1ccccc1-c1ccccc1` [Compound 4, (S)-2-Phenyl-N-[3-chloro-4-(1,3,4,12a-tetrahydro-6H-[1,4]oxazino[4,3-a][1,4]-benzodiazepin-11(12H)-yl-carbonyl)phenyl]benzamide]: the IC50 at V2 [2] stood at 11 nM; on V2 [3], 2 nM. In series [1], the “BP Reduction (%)” value worked out at 100%. With `O=C(Nc1ccc(C(=O)N2C[C@H]3CSCCN3Cc3ccccc32)c(Cl)c1)c1ccccc1-c1ccccc1` (as salt: HCl) [Compound 47, (S)-2-Phenyl-N-[3-chloro-4-(1,3,4,12a-tetrahydro-6H-[1,4]thiazino[4,3-a][1,4]-benzodiazepin-11(12H)-yl-carbonyl)phenyl]benzamide], the melting point lay in the range of 192 to 197 °C. Same read-out and setting: then `O=C(Nc1ccc(C(=O)N2C[C@H]3COCCN3Cc3ccccc32)c(Cl)c1)c1ccccc1-c1ccccc1` (as salt: HCl) (hydrate or solvate) [Compound 4, (S)-2-Phenyl-N-[3-chloro-4-(1,3,4,12a-tetrahydro-6H-[1,4]oxazino[4,3-a][1,4]-benzodiazepin-11(12H)-yl-carbonyl)phenyl]benzamide], with > 210 °C (dec.). Regarding `O=C(Nc1ccc(C(=O)N2CC3COCCN3Cc3ccccc32)cc1O)c1ccccc1-c1ccccc1` (racemic) (as salt: HCl) [Compound 22, (RS)-2-Phenyl-N-[2-hydroxy-4-(1,3,4,12a-tetrahydro-6H-[1,4]oxazino[4,3-a][1,4]-benzodiazepin-11(12H)-yl-carbonyl)phenyl]benzamide], the melting point is 188 to 195 °C (dec.). Consider `O=C(Nc1ccc(C(=O)N2CC3COCCN3C(=O)c3ccccc32)c(Cl)c1)c1ccccc1-c1ccccc1` (racemic) [Compound 21, (RS)-2-Phenyl-N-[3-chloro-4-(1,3,4,12a-tetrahydro-6H-[1,4]oxazino[4,3-a][1,4]-5-oxo-benzodiazepin-11(12H)-yl-carbonyl)phenyl]benzamide], for which the “V1 Bdg (% inh, 0.1 uM)” value at human V-1 receptor is 2%. For the same molecule, the “V2 Bdg % inh” value on V2 [3] is listed as “(59%/0.1 uM)”.

Consider “(RS)-2-Phenyl-N-[4-(8,9-dimethoxy-1,3,4,12a-tetrahydro-6H-[1,4]thiazino[4,3-a][1,4]-benzodiazepin-11(12H)-yl-carbonyl)phenyl]benzamide [Compound 33]”, for which the “V1 Bdg % inh” value at human V-1 receptor (10 uM) is 6%/10 uM. Also, on V2 [3], the “V2 Bdg % inh” value is listed as “(19%/0.1 uM)”. For the molecule `Cc1cccc(C(=O)Nc2ccc(C(=O)N3CC4COCCN4Cc4ccccc43)c(Cl)c2)c1C` (racemic) [Compound 11, (RS)-2,3-Dimethyl-N-[3-chloro-4-(1,3,4,12a-tetrahydro-6H-[1,4]oxazino[4,3-a][1,4]-benzodiazepin-11(12H)-yl-carbonyl)phenyl]benzamide], the inhibition at 0.1 µM on human V-1 receptor was 11%. In addition, the IC50 on V2 [3] is 8 nM. Turning to `O=C(Nc1ccc(C(=O)N2CC3CSCCN3Cc3cc(F)ccc32)c(Cl)c1)c1ccccc1-c1ccccc1` (racemic) [Compound 38, (RS)-2-Phenyl-N-[3-chloro-4-(8-fluoro-1,3,4,12a-tetrahydro-6H-[1,4]thiazino[4,3-a][1,4]-benzodiazepin-11 (12H)-yl-carbonyl)phenyl]benzamide], the inhibition at 0.1 µM at human V-1 receptor turned out to be 9%. For the same molecule, on V2 [3], the IC50 was determined as 18 nM. With `CN1CCN2Cc3ccccc3N(C(=O)c3ccc(NC(=O)c4c(Cl)cccc4Cl)cc3Cl)CC2C1` (racemic) [Compound 98, (RS)-2,6-Dichloro-N-[3-chloro-4-(1,3,4,12a-tetrahydro-2-methyl-6H-[1,4]pyrazino[4,3-a][1,4]-benzodiazepin-11(12H)-yl-carbonyl)phenyl]benzamide], the “V1 Bdg % inh” value at human V-1 receptor (1 uM) is given as “(26%/1 uM)”. The “V2 Bdg % inh” value at V2 [3] is on record as “(12%/0.1 uM)”. Turning to `COc1ccc2c(c1)CN1CCSCC1CN2C(=O)c1ccc(NC(=O)c2ccccc2-c2ccccc2)cc1` (racemic) [Compound 31, (RS)-2-Phenyl-N-[4-(8-methoxy-1,3,4,12a-tetrahydro-6H-[1,4]thiazino[4,3-a][1,4]-benzodiazepin-11(12H)-yl-carbonyl)phenyl]benzamide], the inhibition at 10 µM on human V-1 receptor (10 uM, read-out: V1 Bdg % inh) worked out at 27%. At V2 [3], the half-inhibitory concentration (IC50) turned out to be 43 nM. Regarding `Cc1cccc(C(=O)Nc2ccc(C(=O)N3CC4CSCCN4Cc4ccccc43)c(Cl)c2)c1I` (racemic) [Compound 42, (RS)-2-Iodo-3-methyl-N-[3-chloro-4-(1,3,4,12a-tetrahydro-6H-[1,4]thiazino[4,3-a][1,4]-benzodiazepin-11(12H)-yl-carbonyl)phenyl]benzamide], at human V-1 receptor, the “V1 Bdg (% inh, 0.1 uM)” value stood at 0%. The “V2 Bdg % inh” value on V2 [3] is reported as “(62%/0.1 uM)”.

With `CN1CCN2Cc3ccccc3N(C(=O)c3ccc(NC(=O)c4ccccc4-c4ccccc4)cc3F)CC2C1` (racemic) [Compound 70, (RS)-2-Phenyl-N-[3-fluoro-4-(1,3,4,12a-tetrahydro-2-methyl-6H-[1,4]pyrazino[4,3-a][1,4]-benzodiazepin-11(12H)-yl-carbonyl)phenyl]benzamide], the “V1 Bdg % inh” value on human V-1 receptor (1 uM) was “(9%/1 uM)”. Further, at V2 [3], the “V2 Bdg % inh” value is “(44%/0.1 uM)”.
